Numbered stars: 1 amine (or outer) side, 2 acyl side, 3 side chain; on linkers, the order of the positions; unused ones are H or OH. Square brackets hold non-standard residues; d marks the D form. Side chains are listed from the residue outwards. Peptide text beside a SMILES is read from it. * marks the point of attachment. ξ: configuration not given here. Desaminohistidyl = O=C(CCc1c[nH]cn1)*; X2 = CCCCCCCCCCCCCC(CCCCC(=O)*)C(=O)O; ξγGlu = O=C(O)C(CCC(=O)[*:2])N[*:1]; Stearoyl = CCCCCCCCCCCCCCCCCC(=O)*; Palmitoyl = CCCCCCCCCCCCCCCC(=O)*; Octanoyl = CCCCCCCC(=O)*; ξK = NCCCCC(N)C(=O)O

The target in this assay is Glucagon-like peptide 1 receptor (Homo sapiens, UniProt P43220). Nature of the assay: Potency measured using recombinant human GLP-1 receptor expressed in Baby Hamster Kidney (BHK)cells. In kind it is cell-based.
Sequence of Glucagon-like peptide 1 receptor (P43220 whole entry): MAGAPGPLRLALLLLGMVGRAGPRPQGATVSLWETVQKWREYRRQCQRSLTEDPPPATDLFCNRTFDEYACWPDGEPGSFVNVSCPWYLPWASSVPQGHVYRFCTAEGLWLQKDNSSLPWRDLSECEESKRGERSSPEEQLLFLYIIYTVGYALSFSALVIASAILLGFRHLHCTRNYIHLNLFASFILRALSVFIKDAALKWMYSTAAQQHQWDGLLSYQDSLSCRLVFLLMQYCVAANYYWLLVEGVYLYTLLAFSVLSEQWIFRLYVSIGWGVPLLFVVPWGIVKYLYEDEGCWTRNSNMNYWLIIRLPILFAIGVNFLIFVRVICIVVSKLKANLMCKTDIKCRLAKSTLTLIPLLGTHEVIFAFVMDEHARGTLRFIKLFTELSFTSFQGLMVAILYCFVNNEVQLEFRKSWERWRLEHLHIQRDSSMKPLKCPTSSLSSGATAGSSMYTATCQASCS
On to `CCCCCCCCCCCCCCCC(=O)NC(CCC(=O)NCCCC[C@H](NC(=O)[C@@H](N)Cc1c[nH]cn1)C(=O)N[C@@H](CCC(=O)O)C(=O)NCC(=O)N[C@H](C(=O)N[C@@H](Cc1ccccc1)C(=O)N[C@H](C(=O)N[C@@H](CO)C(=O)N[C@@H](CC(=O)O)C(=O)N[C@H](C(=O)N[C@@H](CO)C(=O)N[C@@H](CO)C(=O)N[C@@H](Cc1ccc(O)cc1)C(=O)N[C@@H](CC(C)C)C(=O)N[C@@H](CCC(=O)O)C(=O)NCC(=O)N[C@@H](CCC(N)=O)C(=O)N[C@@H](C)C(=O)N[C@@H](C)C(=O)N[C@@H](CCCN=C(N)N)C(=O)N[C@@H](CCC(=O)O)C(=O)N[C@@H](Cc1ccccc1)C(=O)N[C@H](C(=O)N[C@@H](C)C(=O)N[C@@H](Cc1c[nH]c2ccccc12)C(=O)N[C@@H](CC(C)C)C(=O)N[C@H](C(=O)N[C@@H](CCCN=C(N)N)C(=O)NCC(=O)N[C@@H](CCCN=C(N)N)C(=O)NCC(=O)O)C(C)C)[C@@H](C)CC)C(C)C)[C@@H](C)O)[C@@H](C)O)C(=O)O` (stereo not given in full), for which the EC50 was found to be 1.26 nM.
Under `CCCCCCCCCC(CCCCC(=O)NCCCCC(NC(=O)CNC(=O)[C@H](CCCN=C(N)N)NC(=O)CNC(=O)[C@H](CCCN=C(N)N)NC(=O)[C@@H](NC(=O)[C@H](CC(C)C)NC(=O)[C@H](Cc1c[nH]c2ccccc12)NC(=O)[C@H](C)NC(=O)[C@@H](NC(=O)[C@H](Cc1ccccc1)NC(=O)[C@H](CCC(=O)O)NC(=O)[C@H](CCCN=C(N)N)NC(=O)[C@H](C)NC(=O)[C@H](C)NC(=O)[C@H](CCC(N)=O)NC(=O)CNC(=O)[C@H](CCC(=O)O)NC(=O)[C@H](CC(C)C)NC(=O)[C@H](Cc1ccc(O)cc1)NC(=O)[C@H](CO)NC(=O)[C@H](CO)NC(=O)[C@@H](NC(=O)[C@H](CC(=O)O)NC(=O)[C@H](CO)NC(=O)[C@@H](NC(=O)[C@H](Cc1ccccc1)NC(=O)[C@@H](NC(=O)CNC(=O)[C@H](CCC(=O)O)NC(=O)[C@H](C)NC(=O)[C@@H](N)Cc1c[nH]cn1)[C@@H](C)O)[C@@H](C)O)C(C)C)[C@@H](C)CC)C(C)C)C(=O)O)C(=O)O` (stereo not given in full) stands 0.0056 nM.
Under `CCCCCCCC(=O)NCCCC[C@H](NC(=O)[C@@H](NC(=O)[C@H](CC(C)C)NC(=O)[C@H](Cc1c[nH]c2ccccc12)NC(=O)[C@H](C)NC(=O)[C@@H](NC(=O)[C@H](Cc1ccccc1)NC(=O)[C@H](CCC(=O)O)NC(=O)[C@H](CCCN=C(N)N)NC(=O)[C@H](C)NC(=O)[C@H](C)NC(=O)[C@H](CCC(N)=O)NC(=O)CNC(=O)[C@H](CCC(=O)O)NC(=O)[C@H](CC(C)C)NC(=O)[C@H](Cc1ccc(O)cc1)NC(=O)[C@H](CO)NC(=O)[C@H](CO)NC(=O)[C@@H](NC(=O)[C@H](CC(=O)O)NC(=O)[C@H](CO)NC(=O)[C@@H](NC(=O)[C@H](Cc1ccccc1)NC(=O)[C@@H](NC(=O)CNC(=O)[C@H](CCC(=O)O)NC(=O)[C@H](C)NC(=O)CCc1c[nH]cn1)[C@@H](C)O)[C@@H](C)O)C(C)C)[C@@H](C)CC)C(C)C)C(=O)NCC(=O)N[C@@H](CCCN=C(N)N)C(=O)NCC(=O)O` (Desaminohistidyl-AEGTFTSDVSSYLEGQAAREFIAWLVK(Octanoyl)GRG-OH) stands 0.236 nM; under `CCCCCCCC(=O)NC(CCC(=O)NCCCC[C@H](NC(=O)[C@@H](NC(=O)[C@H](CC(C)C)NC(=O)[C@H](Cc1c[nH]c2ccccc12)NC(=O)[C@H](C)NC(=O)[C@@H](NC(=O)[C@H](Cc1ccccc1)NC(=O)[C@H](CCC(=O)O)NC(=O)[C@H](CCCN=C(N)N)NC(=O)[C@H](C)NC(=O)[C@H](C)NC(=O)[C@H](CCC(N)=O)NC(=O)CNC(=O)[C@H](CCC(=O)O)NC(=O)[C@H](CC(C)C)NC(=O)[C@H](Cc1ccc(O)cc1)NC(=O)[C@H](CO)NC(=O)[C@H](CO)NC(=O)[C@@H](NC(=O)[C@H](CC(=O)O)NC(=O)[C@H](CO)NC(=O)[C@@H](NC(=O)[C@H](Cc1ccccc1)NC(=O)[C@@H](NC(=O)CNC(=O)[C@H](CCC(=O)O)NC(=O)[C@H](C)NC(=O)CCc1c[nH]cn1)[C@@H](C)O)[C@@H](C)O)C(C)C)[C@@H](C)CC)C(C)C)C(=O)NCC(=O)N[C@@H](CCCN=C(N)N)C(=O)NCC(=O)O)C(=O)O` (stereo not given in full) (Desaminohistidyl-AEGTFTSDVSSYLEGQAAREFIAWLVK([ξγGlu-Octanoyl])GRG-OH), 0.169 nM.
Under `CCCCCCCCCCCCCCCC(=O)NC(CCC(=O)NCCCC[C@H](NC(=O)[C@@H](NC(=O)[C@H](CC(C)C)NC(=O)[C@H](Cc1c[nH]c2ccccc12)NC(=O)[C@H](C)NC(=O)[C@@H](NC(=O)[C@H](Cc1ccccc1)NC(=O)[C@H](CCC(=O)O)NC(=O)[C@H](CCCN=C(N)N)NC(=O)[C@H](C)NC(=O)[C@H](C)NC(=O)[C@H](CCC(N)=O)NC(=O)CNC(=O)[C@H](CCC(=O)O)NC(=O)[C@H](CC(C)C)NC(=O)[C@H](Cc1ccc(O)cc1)NC(=O)[C@H](CO)NC(=O)[C@H](CO)NC(=O)[C@@H](NC(=O)[C@H](CC(=O)O)NC(=O)[C@H](CO)NC(=O)[C@@H](NC(=O)[C@H](Cc1ccccc1)NC(=O)[C@@H](NC(=O)CNC(=O)[C@H](CCC(=O)O)NC(=O)[C@H](C)NC(=O)CCc1c[nH]cn1)[C@@H](C)O)[C@@H](C)O)C(C)C)[C@@H](C)CC)C(C)C)C(=O)NCC(=O)N[C@@H](CCCN=C(N)N)C(=O)NCC(=O)O)C(=O)O` (stereo not given in full) (Desaminohistidyl-AEGTFTSDVSSYLEGQAAREFIAWLVK([ξγGlu-Palmitoyl])GRG-OH) stands 2.36 nM; under `CCCCCCCCCCCCCCCC(=O)NC(CCC(=O)NCCCC[C@H](NC(=O)[C@H](CO)NC(=O)[C@@H](NC(=O)[C@H](CC(=O)O)NC(=O)[C@H](CO)NC(=O)[C@@H](NC(=O)[C@H](Cc1ccccc1)NC(=O)[C@@H](NC(=O)CNC(=O)[C@H](CCC(=O)O)NC(=O)[C@H](C)NC(=O)[C@@H](N)Cc1c[nH]cn1)[C@@H](C)O)[C@@H](C)O)C(C)C)C(=O)N[C@@H](Cc1ccc(O)cc1)C(=O)N[C@@H](CC(C)C)C(=O)N[C@@H](CCC(=O)O)C(=O)NCC(=O)N[C@@H](CCC(N)=O)C(=O)N[C@@H](C)C(=O)N[C@@H](C)C(=O)N[C@@H](CCCN=C(N)N)C(=O)N[C@@H](CCC(=O)O)C(=O)N[C@@H](Cc1ccccc1)C(=O)N[C@H](C(=O)N[C@@H](C)C(=O)N[C@@H](Cc1c[nH]c2ccccc12)C(=O)N[C@@H](CC(C)C)C(=O)N[C@H](C(=O)N[C@@H](CCCN=C(N)N)C(=O)NCC(=O)N[C@@H](CCCN=C(N)N)C(=O)NCC(=O)O)C(C)C)[C@@H](C)CC)C(=O)O` (stereo not given in full) (H-HAEGTFTSDVSK([ξγGlu-Palmitoyl])YLEGQAAREFIAWLVRGRG-OH), 0.0352 nM.
With `CCCCCCCCCCCCCC(CCCCC(=O)NCCCC[C@H](NC(=O)CNC(=O)[C@H](CCCN=C(N)N)NC(=O)[C@@H](NC(=O)[C@H](CC(C)C)NC(=O)[C@H](Cc1c[nH]c2ccccc12)NC(=O)[C@H](C)NC(=O)[C@@H](NC(=O)[C@H](Cc1ccccc1)NC(=O)[C@H](CCC(=O)O)NC(=O)[C@H](CCCN=C(N)N)NC(=O)[C@H](C)NC(=O)[C@H](C)NC(=O)[C@H](CCC(N)=O)NC(=O)CNC(=O)[C@H](CCC(=O)O)NC(=O)[C@H](CC(C)C)NC(=O)[C@H](Cc1ccc(O)cc1)NC(=O)[C@H](CO)NC(=O)[C@H](CO)NC(=O)[C@@H](NC(=O)[C@H](CC(=O)O)NC(=O)[C@H](CO)NC(=O)[C@@H](NC(=O)[C@H](Cc1ccccc1)NC(=O)[C@@H](NC(=O)CNC(=O)[C@H](CCC(=O)O)NC(=O)[C@H](C)NC(=O)[C@@H](N)Cc1c[nH]cn1)[C@@H](C)O)[C@@H](C)O)C(C)C)[C@@H](C)CC)C(C)C)C(=O)NCC(=O)O)C(=O)O` (stereo not given in full) (H-HAEGTFTSDVSSYLEGQAAREFIAWLVRGK(X2)G-OH), the EC50 amounted to 0.21 nM.
Under `CCCCCCCCCCCCCCCCCC(=O)NC(CCC(=O)NCCCC[C@H](NC(=O)CNC(=O)[C@H](CCCN=C(N)N)NC(=O)[C@@H](NC(=O)[C@H](CC(C)C)NC(=O)[C@H](Cc1c[nH]c2ccccc12)NC(=O)[C@H](C)NC(=O)[C@@H](NC(=O)[C@H](Cc1ccccc1)NC(=O)[C@H](CCC(=O)O)NC(=O)[C@H](CCCN=C(N)N)NC(=O)[C@H](C)NC(=O)[C@H](C)NC(=O)[C@H](CCC(N)=O)NC(=O)CNC(=O)[C@H](CCC(=O)O)NC(=O)[C@H](CC(C)C)NC(=O)[C@H](Cc1ccc(O)cc1)NC(=O)[C@H](CO)NC(=O)[C@H](CO)NC(=O)[C@@H](NC(=O)[C@H](CC(=O)O)NC(=O)[C@H](CO)NC(=O)[C@@H](NC(=O)[C@H](Cc1ccccc1)NC(=O)[C@@H](NC(=O)CNC(=O)[C@H](CCC(=O)O)NC(=O)[C@H](C)NC(=O)[C@@H](N)Cc1c[nH]cn1)[C@@H](C)O)[C@@H](C)O)C(C)C)[C@@H](C)CC)C(C)C)C(=O)NCC(=O)O)C(=O)O` (stereo not given in full) (H-HAEGTFTSDVSSYLEGQAAREFIAWLVRGK([ξγGlu-Stearoyl])G-OH) stands 0.116 nM; under `CCCCCCCCCCCCCCCC(=O)NC(CCC(=O)NCCCC[C@H](NC(=O)[C@H](CCCN=C(N)N)NC(=O)[C@H](C)NC(=O)[C@H](C)NC(=O)[C@H](CCC(N)=O)NC(=O)CNC(=O)[C@H](CCC(=O)O)NC(=O)[C@H](CC(C)C)NC(=O)[C@H](Cc1ccc(O)cc1)NC(=O)[C@H](CO)NC(=O)[C@H](CO)NC(=O)[C@@H](NC(=O)[C@H](CC(=O)O)NC(=O)[C@H](CO)NC(=O)[C@@H](NC(=O)[C@H](Cc1ccccc1)NC(=O)[C@@H](NC(=O)CNC(=O)[C@H](CCC(=O)O)NC(=O)[C@H](C)NC(=O)[C@@H](N)Cc1c[nH]cn1)[C@@H](C)O)[C@@H](C)O)C(C)C)C(=O)N[C@@H](Cc1ccccc1)C(=O)N[C@H](C(=O)N[C@@H](C)C(=O)N[C@@H](Cc1c[nH]c2ccccc12)C(=O)N[C@@H](CC(C)C)C(=O)N[C@H](C(=O)N[C@@H](CCCN=C(N)N)C(=O)NCC(=O)N[C@@H](CCCN=C(N)N)C(=O)NCC(=O)O)C(C)C)[C@@H](C)CC)C(=O)O` (stereo not given in full) (H-HAEGTFTSDVSSYLEGQAARK([ξγGlu-Palmitoyl])FIAWLVRGRG-OH), 0.0363 nM; under `CCCCCCCCCCCCCCCCCC(=O)NC(CCC(=O)NCCCCC(NC(=O)[C@H](CCC(=O)O)NC(=O)[C@H](CCCN=C(N)N)NC(=O)CNC(=O)[C@H](CCCN=C(N)N)NC(=O)[C@@H](NC(=O)[C@H](CC(C)C)NC(=O)[C@H](Cc1c[nH]c2ccccc12)NC(=O)[C@H](C)NC(=O)[C@@H](NC(=O)[C@H](Cc1ccccc1)NC(=O)[C@H](CCC(=O)O)NC(=O)[C@H](CCCN=C(N)N)NC(=O)[C@H](C)NC(=O)[C@H](C)NC(=O)[C@H](CCC(N)=O)NC(=O)CNC(=O)[C@H](CCC(=O)O)NC(=O)[C@H](CC(C)C)NC(=O)[C@H](Cc1ccc(O)cc1)NC(=O)[C@H](CO)NC(=O)[C@H](CO)NC(=O)[C@@H](NC(=O)[C@H](CC(=O)O)NC(=O)[C@H](CO)NC(=O)[C@@H](NC(=O)[C@H](Cc1ccccc1)NC(=O)[C@@H](NC(=O)CNC(=O)[C@H](CCC(=O)O)NC(=O)CNC(=O)[C@@H](N)Cc1c[nH]cn1)[C@@H](C)O)[C@@H](C)O)C(C)C)[C@@H](C)CC)C(C)C)C(=O)O)C(=O)O` (stereo not given in full) (H-HGEGTFTSDVSSYLEGQAAREFIAWLVRGRE[ξK]([ξγGlu-Stearoyl])-OH), 0.213 nM.

The term EC50 denotes the concentration needed to bring the measured effect to its halfway point.

Source of the values: ChEMBL document CHEMBL1133591, “Potent derivatives of glucagon-like peptide-1 with pharmacokinetic properties suitable for once daily administration” (J Med Chem, 2000).
